Assay results as given in patent US20100247433A1, “Use of non-canonical amino acids as metabolic markers for rapidly-dividing cells” (California Institute of Technology, priority 2005, published 2010).
Entries after “also recorded” stand apart in the source; their conditions may differ. Read-outs that look alike come from different tables or passages of the source. Values belong to the compound of their own block, whether it stands above or below them.

Tests used:
[1] = test system: Dissociated hippocampal cultured neurons; assay: Toxicity of AHA by gross morphology of GFP-expressing neurons; type: cell-based, rat; details: 12 DIV neurons, 2 hrs, equimolar AHA or methionine control
Procedure: Dissociated hippocampal neuron cultures were prepared from newborn rat pups (PO) as outlined in (Banker and Goslin, 1990), Neurons were plated at a density of 15,000-45,000 cells/cm^2 onto poly-D-lysine coated cell culture dishes or onto poly-D-lysine and growth factor reduced matrigel (BD Biosciences) coated polycarbonate nets with a pore size of 3 μm (Transwell, Corning) for the preparation of isolated dendrites. The cultures were maintained and allowed to mature in growth medium (Neurobasal-A supplemented with B27 and GlutaMAX-1) for 14 to 21 days before use. […] To supplement glial neurotrophic factors, 25% conditioned growth media from glial and cortical cultures were added to the growth media. Isolated dendrites were obtained from Transwell cultures by removing the cell body layer with a sterile cell lifter after change to HBS. For immunolabeling after AHA-incorporation and cycloaddition with BiotinCyclooctyne, neurons are fixed at room temperature with 4% paraformaldehyde for 20 minutes. […] Images are recorded through standard emission filters at contrast settings for which the crossover between the two channels is negligible. […]

[2] = test system: HEK293 cells; assay: Ubiquitin signal on Western blot of whole lysates (protein degradation/misfolding); type: cell-based; details: HEK293 cells treated two hours, compared to buffer or methionine controls
Procedure: (§1) To show the specificity of this technique for the detection of newly synthesized proteins, HEK293 cells were incubated for 2 hrs with AHA in the presence or absence of a protein synthesis inhibitor (Anisomycin or Cycloheximide). After incubation, cells were lysed and subjected to [3+2]cycloaddition with the biotin-bearing alkyne-linker Biotin-PEO-Propargylamide, followed by Western blot analysis with an anti-Biotin-antibody. […] The potential for increased protein degradation was measured by examining the ubiquitin signal strength on a Western blot from whole lysates of HEK293 cells, which were treated with AHA, methionine or incubation buffer for two hours.

[3] = test system: acute hippocampal slices; assay: AHA incorporation in acute hippocampal slices, Biotin-PEO tagging, Neutravidin, Western blot; type: cell-based, rat; details: 400 μm slices, varying concentrations of AHA, 1.5 hours
Procedure: These slices were recovered in artificial cerebrospinal fluid (ACSF) for at least 1 hour on organotypic membranes. Upon recovery, the slices were incubated with either a mixture of ^35S Met and ^35S Cys, or varying concentrations of AHA for 1.5 hours. FIG. 3C is a Western blot analysis for AHA-incorporated proteins from acute hippocampal slices. After AHA incorporation and slice homogenization, the homogenates were subjected to [3+2]-cycloaddition with a Biotin-PEO tag, and proteins incorporating AHA (and thus subsequently labeled by the Biotin-PEO labeling moiety) were concentrated using Neutravidin-conjugated beads (which binds the Biotin-PEO labeling moiety).

[4] = test system: hippocampal dysembryoplastic neuroepithelial tumor (DNT) tissue; assay: AHA labelling of newly synthesized proteins in freshly dissected DNT tumor versus control tissue, anti-biotin Western blot; type: cell-based, human; details: 4 mM AHA, 1 hour, 37° C., equal total protein; control lateral temporal cortex of the same patient
Procedure: FIG. 5: Detection of newly synthesized proteins in cells of acutely dissected human brain tissue. Tumor and control cells were trypsinized and triturated before incubation with 4 mM AHA for 1 hour at 37° C. After cell lysis and Cu(I)-catalyzed tagging with a biotin-FLAG-alkyne tag, samples were subjected to Neutravidin-purification to separate newly synthesized proteins from pre-existing proteins, and analyzed on a Western blot using an anti-biotin antibody. Same total protein amounts were used for both tumor and control tissue. Input: sample before affinity purification; Supernatant: unbound material after Neutravidin-purification; NA: Neutravidin.
Having obtained the proper conditions for labeling dissected tissues, Applicants repeated the experiments in freshly dissected human DNT tumor tissues and control tissues. […] As a control, non-diseased tissue (lateral temporal cortex) from the same patient was analyzed along with the DNT tissue.
Freshly dissected tumor and control tissue were obtained in operating room. To ensure optimal uptake of AHA, both tissues were trypsinized and triturated into single cells before treatment with AHA and deuterated 1-lysine. Incubation with AHA was done at 37° C. under constant agitation. The tissues were subsequently lysed in SDS and Tx-100 buffer, and the newly synthesized proteins were Neutravidin (NA)-purified. […]

[5] = test system: dissociated hippocampal neurons; assay: Fluorescent tagging (TRA/FLA tag) of AHA- or HPG-incorporated proteins in neurons; type: cell-based, rat; details: 1 hour; for incorporation into neurons (fluorescent tag detection): DIV 17, 4 mM, 1 μM TRA or FLA tag
Procedure: (§2) Dissociated hippocampal neuron cultures were prepared from newborn rat pups (PO) as outlined in (Banker and Goslin, 1990), Neurons were plated at a density of 15,000-45,000 cells/cm^2 onto poly-D-lysine coated cell culture dishes or onto poly-D-lysine and growth factor reduced matrigel (BD Biosciences) coated polycarbonate nets with a pore size of 3 μm (Transwell, Corning) for the preparation of isolated dendrites. The cultures were maintained and allowed to mature in growth medium (Neurobasal-A supplemented with B27 and GlutaMAX-1) for 14 to 21 days before use. The use of this growth medium suppressed glial proliferation, which was even more reduced by application of Ara-C (5 μM final concentration). To supplement glial neurotrophic factors, 25% conditioned growth media from glial and cortical cultures were added to the growth media. Isolated dendrites were obtained from Transwell cultures by removing the cell body layer with a sterile cell lifter after change to HBS. For immunolabeling after AHA-incorporation and cycloaddition with BiotinCyclooctyne, neurons are fixed at room temperature with 4% paraformaldehyde for 20 minutes. Fixed cultures are then treated sequentially with PBS, blocking solution (0.2% Triton X-100, 2 mg/ml BSA, 5% Sucrose, 10% normal horse serum in PBS), primary Ab in blocking solution at 4° C. overnight, PBS-Tx (0.2% Triton X-100 in PBS), Alexa488- or Alexa568-conjugated secondary Ab in blocking solution, PBS-Tx and PBS. Immunostained specimens are imaged in PBS with an Olympus confocal microscope or two-photon microscope through either a 10× or a 63× oil-immersion lens. Alexa568 is excited at 543 nm and Alexa488 at 488 nm. Images are recorded through standard emission filters at contrast settings for which the crossover between the two channels is negligible.
In certain embodiments of the invention, two or more pairs of different non-natural amino acid/labeling reagents may be used to simultaneously or sequentially label the newly synthesized proteins. […]

[6] = test system: dendrites of hippocampal neurons; assay: Time-course of detection of newly synthesized proteins in dendrites; type: cell-based, rat
Procedure: as §2
Representative straightened dendrites of neurons (DIV 16) incubated with 4 mM AHA, 4 mM Methionine (Met) or AHA plus 40 μM anisomycin (Aniso) for time points indicated. The lookup table indicates fluorescence intensity. The left end is the proximal end, the right end is the distal end. […]

[7] = test system: mammalian cells, primary neuronal cell cultures; assay: General properties of AHA in cell cultures (previous experiments and literature); type: cell-based
[8] = test system: mammalian cells, primary neuronal cell cultures; details: Dieterich et al. 2006, cited from earlier work
[9] = test system: HEK293 cells; assay: Specificity of AHA labelling of newly synthesized proteins, anti-biotin Western blot after [3+2] cycloaddition; type: cell-based; details: 2 hrs with AHA plus inhibitor
Procedure: In embodiments using [3+2] Cycloaddition, the following exemplary protocol may be used. Briefly, AHA, Biotin-PEO-Propargylamide and the triazole ligand were prepared as described previously. The tandem featured alkyne tag was synthesized by GenScript Corporation. Biotin-Cyclooctyne is a generous gift from Carolyn Bertozzi. D10-L-leucine was purchased from Sigma. In all culture experiments, growth medium was removed from HEK293 cells, whole neuronal cultures or isolated dendrites were replaced with HEPES-buffered solution (HBS) with 2.86 mM AHA, and 2.86 mM methionine for control experiments. After incubation at 37° C., 5% CO2, cells were washed with PBS-MC (1 mM MgCl2, 0.1 mM CaCl2 in PBS) to remove excess amounts of AHA and methionine. SNS and other biochemical fractions are incubated with 2.86 mM AHA or 2.86 mM methionine under agitation at 37° C. and washed in StimBuffer after incubation. […]
as §1, with “Cycloheximide).” for “Cycloheximide). After incubation, cells were lysed and subjected to [3+2]cycloaddition with the biotin-bearing alkyne-linker Biotin-PEO-Propargylamide, followed by Western blot analysis with an anti-Biotin-antibody.”

ubiquitination of total protein [2]: No increased ubiquitination
membrane permeability [7]: excellent membrane permeability
SMILES: [N-]=[N+]=NCC[C@H](N)C(=O)O [AHA, azidohomoalanine]
toxicity to neurons (gross morphology, GFP expression in the dendritic arbor) [1]: not toxic to neurons
incorporation into newly synthesized proteins (biotinylated proteins after Neutravidin) [3]: vast enrichment of biotinylated proteins
level of protein synthesis by AHA labelling, tumor versus non-diseased tissue [4]: substantially higher in cells from tumor tissue
incorporation into neurons (fluorescent tag detection) [5]: successfully incorporated
time at which AHA incorporation was visible ([6]; DIV 16, 4 mM AHA): 10 min
time by which whole neuron soma and dendrite was filled with AHA-labeled proteins ([6]; DIV 16, 4 mM AHA): ≤ 40 min
cell toxicity [7]: not toxic even in primary neuronal cell cultures; also recorded: undetected cell toxicity
protein degradation upon introduction of AHA ([7]; E. coli and mammalian cells): no evidence of increased protein degradation
global protein synthesis rates [8]: no evidence that AHA exposure alters global protein synthesis rates
ubiquitination of total protein ([8]; compared to buffer or methionine controls): no increase in the ubiquitination
cell toxicity ([8]; incl. primary cultured postnatal neurons): not toxic to cells

SMILES: C[C@@H]1C[C@@H]([C@H](O)CC2CC(=O)NC(=O)C2)C(=O)[C@@H](C)C1 [Cycloheximide]
anti-biotin signal of AHA-labelled proteins in the presence of the protein synthesis inhibitor [9]: No signal was detected

SMILES: COc1ccc(C[C@H]2NC[C@H](O)[C@H]2OC(C)=O)cc1 [Anisomycin, reference compound]
anti-biotin signal of AHA-labelled proteins in the presence of the protein synthesis inhibitor [9]: No signal was detected
effect of the protein synthesis inhibitor on AHA incorporation ([5]; 40 μM with 4 mM AHA): completely abolished AHA incorporation
effect of the protein synthesis inhibitor on AHA labelling of dendrites ([6]; 40 μM with AHA): completely inhibited

SMILES: C#CCCC(N)C(=O)O (stereo not drawn) [HPG, Homopropargylglycine]
incorporation into neurons (fluorescent tag detection) [5]: successfully incorporated
